{"source": "patent US6890727B2", "about": "“Diagnostic assay for Alzheimer's disease: assessment of Aβ abnormalities” (The General Hospital Corporation, priority 1994, dated 2005)", "key": {"[1]": {"test_system": "trypsin", "test": "Tryptic digestion of Aβ after incubation with Zn2+", "assay_type": "biochemical", "conditions": "increasing zinc concentrations", "description": "Tryptic Digestion of Aβ-Aβ1-40 (13.9 μg) was incubated with Zn^2+ ([…] in blocking buffer, 1 h, 37° C.) and then digested with trypsin (12 ng, 3 h, 37° C.). The reaction was stopped by adding SDS sample buffer containing phenylmethylsulfonyl fluoride (1 mM), boiling the samples (5 min), and applying the samples to Tris/Tricine gel electrophoresis and transfer. The blot was washed with EDTA, Coomassie-stained, incubated with ^65Zn^2+, individual bands were excised, assayed for ^65Zn^2+ binding, and N-terminal sequenced to confirm the identity of the digestion products. The effects of Zn^2+ (up to 100 μM in TBS) on the activity of trypsin, itself, were assayed by assay of Z-Arg-amido-4-methylcoumarin (Sigma) fluorescent cleavage product and determined to be negligible.\n(FIG. 4a) depicts a blot of tryptic digests of Aβ (13.9 μg) after incubation with increasing concentrations of zinc (lane labels, in micromolar), stained by Coomassie Blue. […] The migration of the low molecular size markers (STD) are indicated (in kilodaltons) on the right. (FIG. 4b) depicts ^65Zn^2+ binding to Aβ tryptic digestion products. The blot in 4a was incubated with ^65Zn^2+, the visible bands excised, and the bound counts for each band determined."}, "[2]": {"conditions": "20 μM in PBS, cited from earlier work"}, "[3]": {"test": "65Zn2+ binding to immobilized peptide (dot-blot, Scatchard competition analysis)", "conditions": "1 min"}, "[4]": {"test": "Aβ incubation with column components, UV absorption before and after", "assay_type": "physicochemical", "description": "To determine the part of the column onto which Aβ was precipitating, Aβ solutions were incubated with various column components and assayed by UV absorption before and after incubation. Replicating the chromatography experimental conditions, Aβ (100 μM in equilibration buffer) was incubated for 1 h in plastic reaction vessels with or without the presence of Sephadex."}, "[5]": {"test": "not given", "remark": "listed apart in the source"}, "[6]": {"test": "Zinc-induced tinctorial amyloid formation (Congo Red, polarized light)", "assay_type": "physicochemical", "description": "FIGS. 8a and 8b are photographs showing zinc-induced tinctorial amyloid formation. […] The particle diameter is 40μ. […] The experiment was repeated with EDTA (50 μM) substituted for Zn^2+ and yielded no visible material.\nThe particle diameter is 40μ. […] The experiment was repeated with EDTA (50 μM) substituted for Zn^2+ and yielded no visible material."}, "[7]": {"test": "Aβ binding to kaolin (aluminum silicate)", "assay_type": "physicochemical", "description": "Aβ Binding to Kaolin (Aluminum Silicate)—Kaolin suspension was prepared in high performance liquid chromatography water (Fisher), defined, and adjusted to 50% (v/v). Aβ (40 μg) was incubated in siliconized reaction vessels with either kaolin or Sephadex G50 SF (10 μl×50% (v/v)) in Cu^2+, Zn^2+, or EDTA (100 μl in TBS, 5 min, room temperature). The suspension was then pelleted (1500×g, 3 min) and the supernatant removed and diluted 20-fold with water to bring the UV absorbance readings into the linear range. Samples were assayed at 214 nm before and after incubation with kaolin or Sephadex.\n(FIG. 3a) depicts concentration (by 214 nm absorbance) of Aβ remaining in supernatant after incubation with 10 mg of G50 Sephadex. (FIG. 3b) depicts concentration (by 214 nm absorbance) of Aβ remaining in supernatant after incubation with 10 mg of kaolin, expressed as percent of the starting absorbance."}, "[8]": {"test": "65Zn2+ binding to immobilized peptide (dot-blot, Scatchard competition analysis)", "description": "^65Zn^2+ Binding Studies—Dissolved peptides (1.2 nMol, unless other wise stated) were dot-blotted onto polyvinylidene difluoride membrane (0.2-μm pore size; Pierce Chemical Co.), washed twice with chelating buffer (200 μl×100 mM NaCl, 20 mM Tris-HCl, 1 mM EDTA, pH 7.4), then five times with blocking buffer (200 μl×100 mM NaCl, 20 mM Tris-HCl, 1 mM MnCl2, pH 7.4), and then incubated (60 min, 20° C.) with ^65Zn (unless otherwise stated 130,000 cpm, […] ^65ZnCl2 in 200 μl of blocking buffer±competing metal ion chloride). The dot-blot was then washed with blocking buffer (5×200 μl), the dot excised, placed in a test tube, and assayed by γ-counting (11% efficiency). The equilibration volume for stoichiometry estimates was regarded as 6×200 μl. The 214 nm UV absorbance of the unbound flow-through was assayed to determine the total amount of peptide remaining bound onto the membrane. […] To alter the pH, the ^65Zn incubation was carried out in the presence of 100 mM buffer: MOPS (pH 6.5-7.0), MES (pH 5.0-6.0), acetate (pH 3.5-4.5). The dot-blot apparatus was washed with detergent and EDTA (50 mM) then rinsed and siliconized between use.\nAliquots of Aβ were incubated (60 min) with ^65Zn^2+ in the presence of varying concentrations of unlabeled Zn^2+ (0.01-50 μM total). Values shown are means±S.D., n≧3. […] (FIG. 1b) depicts specificity of the Zn^2+ binding site for various metals. Aβ was incubated (60 min) with ^65 Zn^2+ (157 nM, 138,000 cpm) and competing unlabeled metal ions (50 μM total). […] Percent binding of total counts ^65Zn^2+/min added is corrected for the amounts (in nanomoles) of peptides adhering to the membrane. […] 157 nM ^65Zn (138,000 cpm) is used in this experiment to probe immobilized peptide (1.6 nmol)."}, "[9]": {"conditions": "centrifugation studies; cited from earlier work"}, "[10]": {"conditions": "neutral pH; cited from earlier work"}}, "note": "Where two headings read alike, the source gives them in different places."}
{"substance": "Aβ1-40: synthetic peptide representing secreted human Aβ1-40, 4.3 kDa, main component of Alzheimer cerebral amyloid", "values": [{"measurement": "effect of zinc on rate of tryptic digestion of the peptide", "setting": "[1]", "result": "is inhibited by the presence of zinc"}, {"measurement": "time stable in solution", "setting": "[2]; pH 7.4", "result": 10, "unit": "days"}, {"measurement": "time to half-maximal aggregation", "setting": "[2]; seeded with Aβ1-42 (2 μM)", "result": "4 to 5", "unit": "days"}, {"measurement": "^65Zn^2+ binding at 1 min", "setting": "[3]", "result": 60, "unit": "% Bmax"}, {"measurement": ">0.2μ particle assembly following incubation with EDTA", "setting": "EDTA", "result": "10-20%"}, {"measurement": "near-instantaneous aggregation into >0.2μ particles", "setting": "EDTA buffer, peptide 1.6 μM", "result": 20, "unit": "%"}, {"measurement": "peptide aggregated into >0.2μ particles", "setting": "EDTA, higher peptide concentrations", "result": "≈ 15%"}, {"measurement": "peptide aggregated into >0.2μ particles", "setting": "EDTA, peptide 0.8 μM", "result": "no detectable aggregation"}, {"measurement": "peptide aggregated into >0.2μ particles", "setting": "Zn^2+ 25 μM, 30 minutes, various peptide concentrations", "result": "up to 80%"}, {"measurement": "peptide aggregated into >0.2μ particles", "setting": "Zn^2+ 25 μM, peptide 0.8 μM", "result": "> 70", "unit": "%"}, {"measurement": "particle assembly rate of second phase", "setting": "Zn^2+ 25 μM, peptide 1.6 μM", "result": 3.2, "unit": "nM/min"}, {"measurement": "time to steady state of the second phase", "setting": "Zn^2+ 25 μM, peptide 1.6 μM", "result": "≤ 2", "unit": "min"}, {"measurement": "half-maximal assembly rate of initial phase", "setting": "Zn^2+ 25 μM, peptide 1.6 μM, pH 7.4", "result": "≈ 0.4 μM/min"}, {"measurement": "time until available peptide is exhausted", "setting": "at second-phase rate", "result": "within five hours"}, {"measurement": "peptide that would aggregate into >0.2μ particles, extrapolated", "setting": "curve of FIG. 6A extrapolated to 0.6 nM peptide, Zn^2+ 25 μM", "result": 25, "unit": "%"}, {"measurement": "binding to Sephadex", "setting": "[4]; Aβ 100 μM, 1 h", "result": "< 1", "unit": "%"}, {"measurement": "loss to siliconized plastic", "setting": "[4]; Aβ 100 μM, 1 h", "result": "< 1", "unit": "%"}, {"measurement": "adsorption in borosilicate glass test tubes", "setting": "[4]; without zinc", "result": 20, "unit": "%"}, {"measurement": "adsorption in borosilicate glass test tubes", "setting": "[4]; zinc 25 μM", "result": 35, "unit": "%"}, {"measurement": "peptide recovered when retained aggregates are washed with EDTA", "setting": "[5]; >0.65 aggregates, EDTA 50 μM", "result": 22, "unit": "%"}, {"measurement": "proportion of particles >0.1μ", "setting": "[5]; EDTA, peptide 1.6 μM", "result": 47, "unit": "%"}, {"measurement": "proportion of particles >0.22μ", "setting": "[5]; EDTA, peptide 1.6 μM", "result": 40, "unit": "%"}, {"measurement": "proportion of particles >0.65μ", "setting": "[5]; EDTA, peptide 1.6 μM", "result": 32, "unit": "%"}, {"measurement": "increase of proportion of >0.1μ particles following incubation with Zn^2+", "setting": "[5]; Zn^2+ 25 μM vs EDTA", "result": 50, "unit": "%"}, {"measurement": "increase of proportion of >0.22μ particles following incubation with Zn^2+", "setting": "[5]; Zn^2+ 25 μM vs EDTA", "result": 55, "unit": "%"}, {"measurement": "proportion of particles >0.65μ", "setting": "[5]; Zn^2+ 25 μM, peptide 1.6 μM", "result": 82, "unit": "%"}, {"measurement": "additional ≦0.22μ peptide resolubilized by EDTA treatment", "setting": "[5]; compared with >0.65 aggregates", "result": 7, "unit": "%"}, {"measurement": "Zn^2+ concentration inducing amyloid by tinctorial criteria", "setting": "[6]; Congo Red", "result": 3, "unit": "µM"}, {"measurement": "particle diameter of zinc-induced precipitate", "setting": "[6]; peptide 25 μM, Zn^2+ 25 μM, 30 minutes, 37° C.", "result": 40, "unit": "μ"}, {"measurement": "reversibility of binding to kaolin", "setting": "[7]; 10 mM EDTA", "result": "not reversible"}, {"measurement": "precipitation of the peptide by kaolin", "setting": "[7]; Aβ 0.4 mg/ml, kaolin 5% v/v, 5 min, room temperature", "result": "up to 87%"}, {"measurement": "time at which ^65Zn^2+ binding plateaued", "setting": "[8]", "result": 1, "unit": "h"}, {"measurement": "^65Zn^2+ binding at lower pH", "setting": "[8]; pH 6.0", "result": "30 % of Bmax"}]}
{"substance": "^125I-human Aβ1-40: human Aβ1-40 iodinated on the tyrosine residue at position 10, tracer", "values": [{"measurement": "Zn^2+ concentration required to precipitate", "setting": "[9]", "result": 1, "unit": "mM"}]}
{"substance": "insulin: insulin, literature comparison for zinc binding", "values": [{"measurement": "stoichiometric ratio Zn^2+:insulin in excess of which the peptide precipitates", "setting": "[10]", "result": "> 0.33"}]}
